Patent US20230111310A1, “CARBOXYLIC ACID DERIVATIVE-SUBSTITUTED IMINO ARYL COMPOUND, PREPARATION METHOD THEREFOR, HERBICIDAL COMPOSITION AND USE THEREOF” (Qingdao Kingagroot Chemical Compound Co., Ltd., priority 2020, published 2023)

What was measured:
Assay in all cases: Weeding effect in post-emergence stage
Type in all cases: in vivo
Alopecurus japonicus = settings: for Weeding effect in post-emergence stage, Alopecurus japonicus: level of fresh weight growth control rate; for Weeding effect in post-emergence stage, Alopecurus japonicus (level): fresh weight control rate level
How it was run: (§1)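 Seeds are sown in soil-filled pots under 0.5-2 cm soil and grown 2 weeks in greenhouse. Plants at 2-3 leaves are sprayed with compound (acetone, Tween 80, 1.5 liter/ha methyl oleate EC, water) at 7.5 to 500 g/ha. Damage is rated 3 weeks later, averaging three repeats.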

Digitaria sanguinalis = settings: for Weeding effect in post-emergence stage, Digitaria sanguinalis: level of fresh weight growth control rate; for Weeding effect in post-emergence stage, Digitaria sanguinalis (level): fresh weight control rate level
How it was run: as §1

Setaria viridis = settings: for Weeding effect in post-emergence stage, Setaria viridis: level of fresh weight growth control rate; for Weeding effect in post-emergence stage, Setaria viridis (level): fresh weight control rate level
How it was run: as §1

Abutilon theophrasti = settings: for Weeding effect in post-emergence stage, Abutilon theophrasti: level of fresh weight growth control rate; for Weeding effect in post-emergence stage, Abutilon theophrasti (level): fresh weight control rate level
How it was run: as §1

Eleusine indica = settings: for Weeding effect in post-emergence stage, Eleusine indica: level of fresh weight growth control rate; for Weeding effect in post-emergence stage, Eleusine indica (level): fresh weight control rate level
How it was run: as §1

Echinochloa crusgalli = settings: for Weeding effect in post-emergence stage, Echinochloa crusgalli: level of fresh weight growth control rate; for Weeding effect in post-emergence stage, Echinochloa crusgalli (level): fresh weight control rate level
How it was run: as §1

Row | SMILES | Weeding effect in post-emergence stage, Alopecurus japonicus (Alopecurus japonicus; Dose 15 g/ha) | Weeding effect in post-emergence stage, Digitaria sanguinalis (Digitaria sanguinalis; Dose 15 g/ha) | Weeding effect in post-emergence stage, Setaria viridis (Setaria viridis; Dose 15 g/ha) | Weeding effect in post-emergence stage, Abutilon theophrasti (Abutilon theophrasti; Dose 15 g/ha) | Weeding effect in post-emergence stage, Eleusine indica (Eleusine indica; Dose 15 g/ha) | Weeding effect in post-emergence stage, Echinochloa crusgalli (Echinochloa crusgalli; Dose 15 g/ha) | other results
1 | COC(=O)C(OC)O/N=C/c1cc(-n2c(=O)cc(C(F)(F)F)n(C)c2=O)c(F)cc1Cl (stereo not drawn) [Compound 321] |  |  |  |  |  |  | Weeding effect in post-emergence stage, Alopecurus japonicus (Alopecurus japonicus; Dose 120 g/ha): 5 (Level 5: growth control rate is above 85%); Weeding effect in post-emergence stage, Digitaria sanguinalis (Digitaria sanguinalis; Dose 120 g/ha): 5 (Level 5: growth control rate is above 85%); Weeding effect in post-emergence stage, Setaria viridis (Setaria viridis; Dose 120 g/ha): 5 (Level 5: growth control rate is above 85%); Weeding effect in post-emergence stage, Abutilon theophrasti (Abutilon theophrasti; Dose 120 g/ha): 5 (Level 5: growth control rate is above 85%); Weeding effect in post-emergence stage, Eleusine indica (Eleusine indica; Dose 120 g/ha): 5 (Level 5: growth control rate is above 85%); Weeding effect in post-emergence stage, Echinochloa crusgalli (Echinochloa crusgalli; Dose 120 g/ha): 5 (Level 5: growth control rate is above 85%)
2 | CCCC(O/N=C/c1cc(-n2c(=O)cc(C(F)(F)F)n(C)c2=O)c(F)cc1Cl)C(=O)OC (stereo not drawn) [Compound 316] | 5 (Level 5: growth control rate is above 85%) | 5 (Level 5: growth control rate is above 85%) | 5 (Level 5: growth control rate is above 85%) | 5 (Level 5: growth control rate is above 85%) | 5 (Level 5: growth control rate is above 85%) | 5 (Level 5: growth control rate is above 85%) | 
3 | C=CCOC(=O)C(C)O/N=C/c1cc(-n2c(=O)cc(C(F)(F)F)n(C)c2=O)c(F)cc1Cl (racemic) [Compound 208] | 5 (Level 5: growth control rate is above 85%) | 5 (Level 5: growth control rate is above 85%) | 5 (Level 5: growth control rate is above 85%) | 5 (Level 5: growth control rate is above 85%) | 5 (Level 5: growth control rate is above 85%) | 5 (Level 5: growth control rate is above 85%) | 
4 | CC(C)=NOC(=O)C(C)O/N=C/c1cc(-n2c(=O)cc(C(F)(F)F)n(C)c2=O)c(F)cc1Cl (stereo not drawn) [Compound 248] | 5 (Level 5: growth control rate is above 85%) | 5 (Level 5: growth control rate is above 85%) | 5 (Level 5: growth control rate is above 85%) | 5 (Level 5: growth control rate is above 85%) | 5 (Level 5: growth control rate is above 85%) | 5 (Level 5: growth control rate is above 85%) | 
5 | C[C@@H](O/N=C/c1cc(-n2c(=O)cc(C(F)(F)F)n(C)c2=O)c(F)cc1Cl)C(=O)OCC#N [226(R)] | 5 (Level 5: growth control rate is above 85%) | 5 (Level 5: growth control rate is above 85%) | 5 (Level 5: growth control rate is above 85%) | 5 (Level 5: growth control rate is above 85%) | 5 (Level 5: growth control rate is above 85%) | 5 (Level 5: growth control rate is above 85%) | 
6 | C[C@@H](O/N=C/c1cc(-n2c(=O)n(C)c(=S)n(C)c2=O)c(F)cc1Cl)C(=O)OCCF [10(R)] | 5 (Level 5: growth control rate is above 85%) | 5 (Level 5: growth control rate is above 85%) | 5 (Level 5: growth control rate is above 85%) | 5 (Level 5: growth control rate is above 85%) | 5 (Level 5: growth control rate is above 85%) | 5 (Level 5: growth control rate is above 85%) | 
7 | CCOC(=O)[C@@H](C)O/N=C/c1cc(-n2c(=O)n(C)c(=S)n(C)c2=O)c(F)cc1C#N [88(R)] | 5 (Level 5: growth control rate is above 85%) | 5 (Level 5: growth control rate is above 85%) | 5 (Level 5: growth control rate is above 85%) | 5 (Level 5: growth control rate is above 85%) | 5 (Level 5: growth control rate is above 85%) | 5 (Level 5: growth control rate is above 85%) | 
8 | COC(=O)C(CCO)O/N=C/c1cc(-n2c(=O)cc(C(F)(F)F)n(C)c2=O)c(F)cc1Cl (stereo not drawn) [Compound 496] |  |  |  |  |  |  | Weeding effect in post-emergence stage, Alopecurus japonicus (level) (Alopecurus japonicus; Dose 15 g/ha): 5 (Level 5: growth control rate is above 85%); Weeding effect in post-emergence stage, Digitaria sanguinalis (level) (Digitaria sanguinalis; Dose 15 g/ha): 5 (Level 5: growth control rate is above 85%); Weeding effect in post-emergence stage, Setaria viridis (level) (Setaria viridis; Dose 15 g/ha): 5 (Level 5: growth control rate is above 85%); Weeding effect in post-emergence stage, Abutilon theophrasti (level) (Abutilon theophrasti; Dose 15 g/ha): 5 (Level 5: growth control rate is above 85%); Weeding effect in post-emergence stage, Eleusine indica (level) (Eleusine indica; Dose 15 g/ha): 5 (Level 5: growth control rate is above 85%); Weeding effect in post-emergence stage, Echinochloa crusgalli (level) (Echinochloa crusgalli; Dose 15 g/ha): 5 (Level 5: growth control rate is above 85%)
9 | CC(O/N=C/c1cc(-n2c(=O)cc(C(F)(F)F)n(C)c2=O)c(F)cc1Cl)C(=O)OCCC(F)(F)F (racemic) [Compound 221] | 4 (Level 4: growth control rate is greater than or equal to 60% and less than 85%) | 5 (Level 5: growth control rate is above 85%) | 5 (Level 5: growth control rate is above 85%) | 5 (Level 5: growth control rate is above 85%) | 5 (Level 5: growth control rate is above 85%) | 5 (Level 5: growth control rate is above 85%) | 
10 | CCCOC(=O)C(C)O/N=C/c1cc(-n2c(=O)n(C)c(=S)n(C)c2=O)c(F)cc1Cl (racemic) [Compound 4] | 5 (Level 5: growth control rate is above 85%) | 5 (Level 5: growth control rate is above 85%) | 5 (Level 5: growth control rate is above 85%) | 5 (Level 5: growth control rate is above 85%) | 5 (Level 5: growth control rate is above 85%) | 5 (Level 5: growth control rate is above 85%) | 
11 | CC(=O)COC(=O)C(C)O/N=C/c1cc(-n2c(=O)cc(C(F)(F)F)n(C)c2=O)c(F)cc1Cl (stereo not drawn) [Compound 238] | 5 (Level 5: growth control rate is above 85%) | 5 (Level 5: growth control rate is above 85%) | 5 (Level 5: growth control rate is above 85%) | 5 (Level 5: growth control rate is above 85%) | 5 (Level 5: growth control rate is above 85%) | 5 (Level 5: growth control rate is above 85%) | 
12 | C=C(Cl)COC(=O)[C@@H](C)O/N=C/c1cc(-n2c(=O)cc(C(F)(F)F)n(C)c2=O)c(F)cc1Cl [501(R)] |  |  |  |  |  |  | Weeding effect in post-emergence stage, Alopecurus japonicus (level) (Alopecurus japonicus; Dose 15 g/ha): 5 (Level 5: growth control rate is above 85%); Weeding effect in post-emergence stage, Digitaria sanguinalis (level) (Digitaria sanguinalis; Dose 15 g/ha): 5 (Level 5: growth control rate is above 85%); Weeding effect in post-emergence stage, Setaria viridis (level) (Setaria viridis; Dose 15 g/ha): 5 (Level 5: growth control rate is above 85%); Weeding effect in post-emergence stage, Abutilon theophrasti (level) (Abutilon theophrasti; Dose 15 g/ha): 5 (Level 5: growth control rate is above 85%); Weeding effect in post-emergence stage, Eleusine indica (level) (Eleusine indica; Dose 15 g/ha): 5 (Level 5: growth control rate is above 85%); Weeding effect in post-emergence stage, Echinochloa crusgalli (level) (Echinochloa crusgalli; Dose 15 g/ha): 5 (Level 5: growth control rate is above 85%)
13 | CC(C)SC(=O)C(C)O/N=C/c1cc(-n2c(=O)cc(C(F)(F)F)n(C)c2=O)c(F)cc1Cl (stereo not drawn) [Compound 400] |  |  |  |  |  |  | Weeding effect in post-emergence stage, Alopecurus japonicus (level) (Alopecurus japonicus; Dose 15 g/ha): 4 (Level 4: growth control rate is greater than or equal to 60% and less than 85%); Weeding effect in post-emergence stage, Digitaria sanguinalis (level) (Digitaria sanguinalis; Dose 15 g/ha): 5 (Level 5: growth control rate is above 85%); Weeding effect in post-emergence stage, Setaria viridis (level) (Setaria viridis; Dose 15 g/ha): 5 (Level 5: growth control rate is above 85%); Weeding effect in post-emergence stage, Abutilon theophrasti (level) (Abutilon theophrasti; Dose 15 g/ha): 5 (Level 5: growth control rate is above 85%); Weeding effect in post-emergence stage, Eleusine indica (level) (Eleusine indica; Dose 15 g/ha): 5 (Level 5: growth control rate is above 85%); Weeding effect in post-emergence stage, Echinochloa crusgalli (level) (Echinochloa crusgalli; Dose 15 g/ha): 5 (Level 5: growth control rate is above 85%)
14 | C[C@@H](O/N=C/c1cc(-n2c(=O)cc(C(F)(F)F)n(C)c2=O)c(F)cc1Cl)C(=O)OCCC(F)(F)F [221(R)] | 5 (Level 5: growth control rate is above 85%) | 5 (Level 5: growth control rate is above 85%) | 5 (Level 5: growth control rate is above 85%) | 5 (Level 5: growth control rate is above 85%) | 5 (Level 5: growth control rate is above 85%) | 5 (Level 5: growth control rate is above 85%) | 
15 | CCOC(=O)C(C)O/N=C/c1cc(-n2c(=O)n(C)c(=S)n(C)c2=O)c(F)cc1C#N (racemic) [Compound 88] | 5 (Level 5: growth control rate is above 85%) | 5 (Level 5: growth control rate is above 85%) | 5 (Level 5: growth control rate is above 85%) | 5 (Level 5: growth control rate is above 85%) | 5 (Level 5: growth control rate is above 85%) | 5 (Level 5: growth control rate is above 85%) | 
